Laboratory results from patent US20220395495A1 (priority 2019, published 2022).

What was measured:
[1] = test system: Mtb H37Rv; test: Mouse chronic infection model of tuberculosis, lung bacterial CFU, Inh or Rif with or without CQ; format: in vivo, BALB/c mice; details: mice, 10 mg/kg chloroquine added to first line TB drug (FIGS. 1B, 1C)
[2] = test system: Mtb H37Rv; test: Guinea pig infection model of tuberculosis, lung bacterial burden, Inh with or without CQ; format: in vivo, Outbred Hartley guinea pigs; details: Guinea pigs (FIG. 1F)
[3] = test system: TB; test: Direct in vitro activity on TB
[4] = test system: Mtb within macrophages; test: Drug tolerance and killing of Mtb within macrophages; format: cell-based; details: by deacidification
[5] = Plasma concentrations and exposures of CQ by intraperitoneal or oral route; details: in vivo
[6] = test system: Mtb H37Rv; test: Dexamethasone-induced reactivation (relapse) of Mtb in the lungs of chronically infected BALB/c mice after treatment; format: in vivo

With CCN(CC)CCCC(C)Nc1ccnc2cc(Cl)ccc12 (stereo not shown) [Chloroquine] the “Bacterial killing and efficacy on addition of chloroquine to Isoniazid (H) or Rifampicin (R)” value [1] was “enhanced bacterial killing and efficacy”, the “Bacterial killing and efficacy on addition of chloroquine to Isoniazid” value [2] was “enhanced bacterial killing and efficacy” and the “Direct in vitro activity on TB” value [3] was “no or limited direct in vitro activity on TB”. For the same molecule, the “Effect on phenotypic drug tolerance and killing of Mtb within macrophages” value [4] was “counteracts phenotypic drug tolerance and accelerates killing of Mtb within macrophages” and the “Plasma concentrations and exposures, intraperitoneal versus oral route” value [5] was “nearly equivalent plasma concentrations and exposures”.
For NNC(=O)c1ccncc1 [Inh alone, Isoniazid], the “Average log10CFU per lung” value ([6]; reactivated Mtb in lungs after dexamethasone immunosuppression, 22nd week p.i., average over relapsed animals) was 4.2 (n = 5) log10CFU per lung and the Percentage relapse ([6]; treatment stopped at 12 weeks p.i., 8 weeks without treatment, then dexamethasone 10 mg/kg i.p. x4 over 2 weeks, lungs at 22nd week p.i., n=5) was 100% (5/5).
